Values quoted from earlier work in US9603795B2, “Composite for preparing a transdermal delivery device and method for synthesizing the composite thereof” (City University of Hong Kong, priority 2014, dated 2017).

Details: oral administration

Q: Which “amount absorbed in the upper intestinal tract” value does the source give for `OC[C@H]1O[C@@H]2O[C@H]3[C@H](O)[C@@H](O)[C@@H](O[C@H]4[C@H](O)[C@@H](O)[C@@H](O[C@H]5[C@H](O)[C@@H](O)[C@@H](O[C@H]6[C@H](O)[C@@H](O)[C@@H](O[C@H]7[C@H](O)[C@@H](O)[C@@H](O[C@H]8[C@H](O)[C@@H](O)[C@@H](O[C@H]1[C@H](O)[C@H]2O)O[C@@H]8CO)O[C@@H]7CO)O[C@@H]6CO)O[C@@H]5CO)O[C@@H]4CO)O[C@@H]3CO` [β-CD, β-cyclodextrin] here?
A: 1-2%
